Test results: patent publication US20060069132A1, “Azolecarboxamide herbicides” (priority 2004, published 2006)

Columns and labels:
giant foxtail = experiment: Test C pre-/postemergence herbicide test; assay type: in vivo, Setaria faberi; details: for Foxtail, Giant plant response rating: Preemergence, 500 g ai/ha, scale 0 to 100, 0 no effect, 100 complete control
Summary of the method: (§1)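 Pre- and postemergence application, solvent/surfactant formulation; post at 1- to 4-leaf stage (2–18 cm). Greenhouse 12–14 d. Visual rating vs controls, 0 = no effect, 100 = complete control.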

Surinam grass = experiment: Test C pre-/postemergence herbicide test; assay type: in vivo, Urochloa decumbens; details: for Surinam Grass plant response rating: Preemergence, 500 g ai/ha, scale 0 to 100, 0 no effect, 100 complete control
Summary of the method: as §1

common ragweed = experiment: Test C pre-/postemergence herbicide test; assay type: in vivo, Ambrosia elatior; set-up: key to Plant response rating, Ragweed: 0 = no effect, 100 = complete control; details: for Ragweed plant response rating: Preemergence, 500 g ai/ha, scale 0 to 100, 0 no effect, 100 complete control
Summary of the method: as §1

corn = experiment: Test C pre-/postemergence herbicide test; assay type: in vivo, Zea mays; details: for Corn plant response rating: Preemergence, 500 g ai/ha, scale 0 to 100, 0 no effect, 100 complete control
Summary of the method: as §1

velvetleaf = experiment: Test A pre-/postemergence herbicide test; assay type: in vivo, Abutilon theophrasti
Summary of the method: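 Visual injury rating on a 0–100 scale (0 no effect, 100 complete control) versus untreated controls, about ten days after treatment in greenhouse. Pre: directed soil spray onto seeded sandy loam. Post: spray to runoff on plants 2–10 cm tall at one- to two-leaf stage.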

morningglory = experiment: Test C pre-/postemergence herbicide test; assay type: in vivo, Ipomoea coccinea; set-up: key to Plant response rating, Morningglory: 0 = no effect, 100 = complete control; details: for Morningglory plant response rating: Preemergence, 500 g ai/ha, scale 0 to 100, 0 no effect, 100 complete control
Summary of the method: as §1

soybean = experiment: Test C pre-/postemergence herbicide test; assay type: in vivo, Glycine max; details: for Soybean plant response rating: Preemergence, 500 g ai/ha, scale 0 to 100, 0 no effect, 100 complete control
Summary of the method: as §1

kochia = experiment: Test C pre-/postemergence herbicide test; assay type: in vivo, Kochia scoparia; details: for Kochia plant response rating: Preemergence, 500 g ai/ha, scale 0 to 100, 0 no effect, 100 complete control
Summary of the method: as §1

[1] = 62 g ai/ha, preemergence, scale 0 to 100
[2] = 125 g ai/ha, scale 0 (no effect) to 100 (complete control), visual, 12 to 14 days, preemergence
[3] = 250 g ai/ha, scale 0-100, preemergence

CCc1nc(C(C)(C)C)sc1C(=O)Nc1cccc(C(=O)N(CC)CC)c1 [Compound 205]
Plant response rating, Foxtail, Giant (giant foxtail; [1]): 0
Plant response rating, Foxtail, Giant (giant foxtail; [2]): 10
Plant response rating, Foxtail, Giant (giant foxtail; [3]): 80
Foxtail, Giant plant response rating (giant foxtail): 95
Plant response rating, Surinam Grass (Surinam grass; [1]): 0
Plant response rating, Surinam Grass (Surinam grass; [2]): 20
Plant response rating, Surinam Grass (Surinam grass; [3]): 50
Surinam Grass plant response rating (Surinam grass): 85
Plant response rating, Ragweed (common ragweed; [1]): 0
Plant response rating, Ragweed (common ragweed; [2]): 20
Plant response rating, Ragweed (common ragweed; [3]): 50
Ragweed plant response rating (common ragweed): 100
Plant response rating, Corn (corn; [1]): 0
Plant response rating, Corn (corn; [2]): 0
Plant response rating, Corn (corn; [3]): 0
Corn plant response rating (corn): 40
Velvetleaf plant response rating (velvetleaf; Postemergence, 500 g ai/ha, 0 to 100 scale, 0 no effect, 100 complete control): 20
Plant response rating, Velvetleaf (velvetleaf; Postemergence, 2000 g ai/ha, 0 to 100 scale, 0 no effect, 100 complete control): 30
Velvetleaf plant response rating (velvetleaf; Preemergence, 2000 g ai/ha, visual rating, 0 to 100 scale (0 no effect, 100 complete control)): 100
Velvetleaf plant response rating (velvetleaf; preemergence, 500 g ai/ha, visual injury, 0 to 100 scale (0 no effect, 100 complete control)): 70
Plant response rating, Morningglory (morningglory; [1]): 0
Plant response rating, Morningglory (morningglory; [2]): 0
Plant response rating, Morningglory (morningglory; [3]): 10
Morningglory plant response rating (morningglory): 50
Plant response rating, Soybean (soybean; [2]): 20
Plant response rating, Soybean (soybean; [3]): 20
Soybean plant response rating (soybean): 60
Plant response rating, Kochia (kochia; [1]): 90
Plant response rating, Kochia (kochia; [2]): 90
Plant response rating, Kochia (kochia; [3]): 90
Kochia plant response rating (kochia): 90

CCn1nc(C(C)(C)C)cc1C(=O)Nc1cc(C(=O)N(C)C)ccn1 [Compound 156, 2-[[[3-(1,1-dimethylethyl)-1-ethyl-1H-pyrazol-5-yl]carbonyl]amino]-N,N-dimethyl-4-pyridinecarboxamide]
Foxtail, Giant plant response rating (giant foxtail): 95
pest or weed control at 62 g/ha (giant foxtail; Setaria faberi, pre-emergence, 312 h, 62 g ai/ha, preemergence, scale 0 to 100, read-out: Plant response rating, Foxtail, Giant): 75%
pest or weed control at 125 g/ha (giant foxtail; Setaria faberi, pre-emergence, 312 h, 125 g ai/ha, scale 0 (no effect) to 100 (complete control), visual, 12 to 14 days, read-out: Plant response rating, Foxtail, Giant): 83%
pest or weed control at 250 g/ha (giant foxtail; Setaria faberi, pre-emergence, 312 h, 250 g ai/ha, scale 0 to 100 (0 no effect, 100 complete control), visual, 12 to 14 days, read-out: Plant response rating, Foxtail, Giant): 85%
Surinam Grass plant response rating (Surinam grass): 95
pest or weed control at 62 g/ha (Surinam grass; Urochloa decumbens, pre-emergence, 312 h, 62 g ai/ha, preemergence, scale 0 to 100, read-out: Plant response rating, Surinam Grass): 75%
pest or weed control at 125 g/ha (Surinam grass; Urochloa decumbens, pre-emergence, 312 h, 125 g ai/ha, scale 0 (no effect) to 100 (complete control), visual, 12 to 14 days, read-out: Plant response rating, Surinam Grass): 88%
pest or weed control at 62 g/ha (common ragweed; Ambrosia artemisiifolia, pre-emergence, 62 g ai/ha, preemergence, scale 0 to 100, read-out: Plant response rating, Ragweed): 90%
pest or weed control at 125 g/ha (common ragweed; Ambrosia artemisiifolia, pre-emergence, 125 g ai/ha, scale 0 (no effect) to 100 (complete control), visual, 12 to 14 days, read-out: Plant response rating, Ragweed): 100%
Ragweed plant response rating (common ragweed): 100
Corn plant response rating (corn): 50
Corn plant response rating (crop injury, 0 = no effect, 100 = complete kill) at 62 g/ha (corn; Zea mays, pre-emergence, 312 h, 62 g ai/ha, preemergence, scale 0 to 100): 15%
Corn plant response rating (crop injury, 0 = no effect, 100 = complete kill) at 125 g/ha (corn; Zea mays, pre-emergence, 312 h, 125 g ai/ha, scale 0 (no effect) to 100 (complete control), visual, 12 to 14 days): 38%
Corn plant response rating (crop injury, 0 = no effect, 100 = complete kill) at 250 g/ha (corn; Zea mays, pre-emergence, 312 h, 250 g ai/ha, scale 0 to 100 (0 no effect, 100 complete control), visual, 12 to 14 days): 40%
pest or weed control at 62 g/ha (morningglory; Ipomoea, pre-emergence, 62 g ai/ha, preemergence, scale 0 to 100, read-out: Plant response rating, Morningglory): 8%
pest or weed control at 125 g/ha (morningglory; Ipomoea, pre-emergence, 125 g ai/ha, scale 0 (no effect) to 100 (complete control), visual, 12 to 14 days, read-out: Plant response rating, Morningglory): 60%
Morningglory plant response rating (morningglory): 100
plant injury at 62 g/ha (soybean; Glycine max, pre-emergence, 62 g ai/ha, preemergence, scale 0 to 100, read-out: Plant response rating, Soybean): 33%
plant injury at 125 g/ha (soybean; Glycine max, pre-emergence, 125 g ai/ha, scale 0 (no effect) to 100 (complete control), visual, 12 to 14 days, read-out: Plant response rating, Soybean): 50%
Soybean plant response rating (soybean): 100
pest or weed control at 62 g/ha (kochia; Bassia scoparia, pre-emergence, 62 g ai/ha, preemergence, scale 0 to 100, read-out: Plant response rating, Kochia): 95%
pest or weed control at 125 g/ha (kochia; Bassia scoparia, pre-emergence, 125 g ai/ha, scale 0 (no effect) to 100 (complete control), visual, 12 to 14 days, read-out: Plant response rating, Kochia): 95%
Kochia plant response rating (kochia): 100
